Measurements as given in patent publication US11357749B2, “Methods for treating neutropenia” (Enzychem Lifesciences Corporation, priority 2014, dated 2022).

What was measured:
ERK1/2 = ERK1/2 phosphorylation, western blot in IgE-antigen stimulated RBL-2H3 cells; format: cell-based; settings: PLAG pre-incubated RBL-2H3 cells, IgE-antigen complex stimulation
Experimental: Dephosphorylation of p38 MAPK and ERK1/2 in PLAG-treated RBL-2H3 cells is determined by western blot analysis using anti-phospho-p38 and anti-phospho-ERK1/2 respectively. To activate the p38 and ERK1/2 in RBL-2H3 cells, the cells are sensitized with 50 ng/mL of anti-DNP-IgE overnight. After washing with PBS three times, 20 ng/ml of DNP-HSA is added. Each cell lysate for western blot is prepared in the PLAG-treated RBL-2H3 cells in a dose-dependent manner and incubated for the same time (15 min). β-actin is used as internal controls. ERK1/2 and p38 phosphorylation start immediately after IgE-antigen complex stimulation and remain sufficiently activated for 5 min.

STAT6 = STAT6 transcriptional activity reporter (luciferase) assay in HepG2 cells; format: cell-based, human; settings: HepG2, 10 ng IL-4, PLAG 0.01-10 μg/ml, 12 hours
Experimental: (§1) By using STAT6 inhibitor (S6I), it is confirmed that the reduction of Complement 3 in HepG2 cells (human hepatocyte cell line) is regulated by STAT6. […] It is also confirmed that PLAG has selective efficacy on STAT6 over STAT1. FIG. 1 presents graphs showing STAT1 and STAT6 transcriptional activity in the PLAG treated HepG2 cells. NC refers to the unstimulated control cell. For the STAT1 assay, gene transfected HepG2 (human hepatocyte cell line) is treated with 10 ng of IFN-γ and serially diluted PLAG is added (0.01 μg/ml, 0.1 μg/ml, 1 μg/ml, and 10 μg/ml as shown) to see its effect on gene expression in the stimulated cell. For the STAT6 assay, gene transfected HepG2 cells are treated with 10 ng of IL-4 and again serially diluted PLAG is added (0.01 μg/ml, 0.1 μg/ml, 1 μg/ml, and 10 μg/ml as shown) to see its effect on gene expression in the stimulated cell. The assay is carried out following 12 hours incubation of treated cells.

STAT1 = STAT1 transcriptional activity reporter assay in HepG2 cells; format: cell-based, human; settings: HepG2, 10 ng IFN-γ, PLAG 0.01-10 μg/ml, 12 hours
Experimental: as §1

C3 = C3 in culture supernatant of HepG2 cells by ELISA; format: cell-based, human; settings: HepG2, PLAG 1 to 100 μg/ml, IL-4 and TNF-α, 18 hr
Experimental: (§2) The incubated HepG2 cell lines are treated with PLAG (1˜100 μg/ml), followed by IL-4 and TNF-α, reacted for 1 hour, incubated for 18 hours at 37° C. and the supernatant isolated. Quantitation of the amount of C3 in the cellular culture medium (supernatant) from HepG2 cells is performed by ELISA using a commercially available monoclonal antibody (mAb, R&D Systems) and the manufacture's protocol; the results are presented in FIG. 3. C3 is expressed spontaneously under in vitro culture condition using 10% FCS added to HepG2 cells incubated for 12 hr. The cells are treated with different doses of PLAG from 1 to 100 μg/ml (Panel A, Panel B) or 10 and 100 μg/ml of S6I (Panel C), reacted with IL-4 and TNF-α for 1 hr and then incubated for 18 hr at 37° C. Cellular viability is confirmed using the WST-1 assay (Panel A).

HepG2 cells = assay: WST-1 cell viability assay in HepG2 cells; format: cell-based; settings: HepG2, PLAG 1 to 100 μg/ml
Experimental: as §2

neutrophils = assay: Chemotherapy-induced neutropenia mouse model (neutrophil count, survival); format: in vivo, mice
Experimental: The effect of PLAG for treatment of neutropenia and thrombocytopenia induced by chemotherapy (CIN) is evaluated in an animal model. Anti-cancer agents (Gemcitabine 50 mg/kg, Cyclosphosphamide 100 mg/kg, or Tamoxifen 50 mg/kg) are dosed daily for 3 weeks; PLAG is also administered 50 mg/kg daily for 3 weeks. After three weeks, neutrophils are harvested and counted with Auto Hematology Analyzer BC-5300.

monocytes = assay: Monocyte ratio in blood of LPS-treated C57BL/6 mice; format: in vivo; settings: C57BL/6 mouse, LPS + PLAG, ratio to total leukocytes
Experimental: To observe the ratio of neutrophil and lymphocyte in the blood of Balb/C mice, 1 mg/kg of lipopolysaccharide (LPS) is injected to mice, i.p. to induce inflammation. 5 mg/kg of PLAG is administered to the mice orally and blood samples are taken at 3 and 13 days after. In addition, for comparison, normal mice that are not treated with PLAG, receive PBS (phosphate buffered saline) and olive oil. The blood samples taken from the mice are treated with EDTA bottle 0.5 ml (Minocollect tube, Greiner bio-one, Austria) and the level of neutrophils (NEU) and lymphocytes (LYM) as a percentage of total leukocytes is measured using automated blood sample analyzer BC-6800 (Mindray, Shenzhen, China).
Except for using C57BL/6 mouse instead of Balb/C mouse, mice are treated in the same manner as Example 6, the monocyte ratio (Mono) to total leukocytes is measured and the results are shown in Table 5.

[1] = tested on: neutrophils, lymphocytes and eosinophils; assay: Neutrophil, lymphocyte and eosinophil ratio after Tamoxifen and PLAG in mice; format: in vivo; settings: Tam 100 mg/kg + PLAG 5 mg/kg, after 15 hours
Experimental: 100 mg/kg of anticancer agent Tamoxifen (Tam) is used to induce reduction of neutrophils, followed by treated with 5 mg/kg of PLAG and the ratios of neutrophil (NEU), lymphocyte (LYM), and eosinophil (EOS) are measured after 15 hours as in the previous experiment.

C4 = assay: Clinical study in healthy subjects: C4 in blood; format: in vivo, human
bone marrow-derived HSC = assay: In vitro colony formation in bone marrow-derived HSC; format: cell-based
sepsis = sepsis animal model, cecal-ligation-puncture; stated as known; cited from earlier work

CCCCC/C=C\C/C=C\CCCCCCCC(=O)OC(COC(C)=O)COC(=O)CCCCCCCCCCCCCCC (racemic) [PLAG, 1-palmitoyl-2-linoleoyl-3-acetylglycerol]
ERK1/2 phosphorylation (ERK1/2): down-regulated
transcriptional activity of STAT6 (STAT6): gradually decreased
STAT1 expression (transcriptional activity) (STAT1): no effect
expression of C3 in supernatant (ELISA) (C3): decreased dose-dependently
cellular viability (WST-1) (HepG2 cells): does not affect the cellular propagation and death
reduced neutrophil count following chemotherapy (neutrophils; Gemcitabine 50 mg/kg, Cyclosphosphamide 100 mg/kg or Tamoxifen 50 mg/kg daily, PLAG 50 mg/kg daily, 3 weeks): prevented
survival rate (neutrophils; PLAG with Gemcitabine vs Gemcitabine alone): improved survival rate
activities and survival rate (neutrophils; Tamoxifen 50 mg/kg co-treated with PLAG vs Tamoxifen only): faster improvement of activities and survival rate
neutrophil score (neutrophils; mice treated with PLAG 50 mg/kg and Gemcitabine 50 mg/kg daily, 3 weeks): improved significantly
neutrophil count (neutrophils; mice treated with PLAG 50 mg/kg and cyclophosphamide 100 mg/kg daily, 3 weeks, vs control group): improved significantly
Monocyte ratio (monocytes): 18.4 ± 6.6%
Eosinophil Ratio [1]: 15.1 ± 0.3%
Lymphocyte ratio [1]: 45.7 ± 4.1%
Neutrophil Ratio [1]: 35.2 ± 2.4%
C4, After (C4; healthy subjects n = 27, 500 mg PLAG per day oral, after 4-wk intervention): 20.8 ± 5.6 mg/dL
C4, Before (C4; healthy subjects n = 27, before PLAG supplementation): 21.6 ± 6.6 mg/dL
colony formation (bone marrow-derived HSC): increased colony formation
survivability ratio of animals (sepsis): increases survivability ratio
